Substitutions are numbered along the chain they refer to.

In the first test the target is T1, AR protein (Homo sapiens, UniProt P10275, T878A).
T1 construct: degradation activity of the compounds disclosed in the present disclosure on AR protein in LNCaP cells; host or cells: LNCaP FGC
T1 sequence (P10275 1-920 T878A): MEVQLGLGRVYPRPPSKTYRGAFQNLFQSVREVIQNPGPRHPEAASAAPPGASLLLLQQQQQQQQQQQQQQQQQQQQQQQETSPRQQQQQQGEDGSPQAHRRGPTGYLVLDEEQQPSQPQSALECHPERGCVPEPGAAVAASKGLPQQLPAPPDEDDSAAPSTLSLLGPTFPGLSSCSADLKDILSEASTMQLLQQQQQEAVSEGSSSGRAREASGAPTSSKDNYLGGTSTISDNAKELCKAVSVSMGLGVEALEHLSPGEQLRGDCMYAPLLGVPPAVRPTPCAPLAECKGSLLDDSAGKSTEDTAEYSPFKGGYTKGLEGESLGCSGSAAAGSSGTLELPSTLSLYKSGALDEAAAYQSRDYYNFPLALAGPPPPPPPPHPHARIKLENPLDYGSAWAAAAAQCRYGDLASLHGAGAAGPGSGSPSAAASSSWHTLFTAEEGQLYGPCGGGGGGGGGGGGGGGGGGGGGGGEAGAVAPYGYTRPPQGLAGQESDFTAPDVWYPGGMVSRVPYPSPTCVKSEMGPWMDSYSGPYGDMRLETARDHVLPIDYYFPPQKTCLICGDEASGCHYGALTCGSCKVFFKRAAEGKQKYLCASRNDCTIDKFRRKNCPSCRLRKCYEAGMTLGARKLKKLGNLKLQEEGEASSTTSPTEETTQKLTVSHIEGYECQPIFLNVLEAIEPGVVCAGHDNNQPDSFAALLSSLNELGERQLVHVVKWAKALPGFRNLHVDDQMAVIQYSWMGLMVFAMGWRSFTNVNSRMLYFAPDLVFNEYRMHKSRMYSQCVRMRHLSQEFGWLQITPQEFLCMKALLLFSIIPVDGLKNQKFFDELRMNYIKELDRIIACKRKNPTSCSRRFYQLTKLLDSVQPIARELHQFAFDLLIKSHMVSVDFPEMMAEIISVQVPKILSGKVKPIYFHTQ
The test can be described thus: Degradation of AR protein in LNCaP cells (Western blot). The format is cell-based. The note with it: LNCaP cells, compound 10 nM, 8 hours, Western blot grayscale, GAPDH internal reference; read-out: Degradation rates of the AR protein in LNCaP cells, 10 nM (%). In a few lines: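 Percent AR degradation was derived from GAPDH-normalised Western blot band intensities (infrared detection) in LNCaP lysates.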
Consider `CCC1(CN2CCC3(CC2)COc2c3ccc3c2CN(C2CCC(=O)NC2=O)C3=O)CCN(c2ccc(C(=O)N[C@H]3C(C)(C)[C@H](Oc4ccc(C#N)c(OC)c4)C3(C)C)cc2)CC1` (stereo partly drawn) [Compound 294], for which the inhibition at 0.01 µM was found to be 54%.

As for `CCOC1(CN2CCC3(CC2)COc2c3ccc3c2C(=O)N(C2CCC(=O)NC2=O)C3=O)CCN(c2ccc(C(=O)N[C@H]3C(C)(C)[C@H](Oc4ccc(C#N)c(OC)c4)C3(C)C)cc2)CC1` (stereo partly drawn) [Compound 295], the inhibition at 0.01 µM is 1%.

With `COc1cc(O[C@H]2C(C)(C)[C@H](NC(=O)c3ccc(N4CCC(CN5CCC6(CCc7cc8c(cc7O6)CN(C6CCC(=O)NC6=O)C8=O)CC5)CC4)cc3)C2(C)C)ccc1C#N` (stereo partly drawn) [Compound 296], the inhibition at 0.01 µM is 53%.

Staying with this test, now noted: LNCaP cells, compound 100 nM, 8 hours, Western blot grayscale, GAPDH internal reference; read-out: Degradation rates of the AR protein in LNCaP cells, 100 nM (%).
For `CCC1(CN2CCC3(CC2)COc2c3ccc3c2CN(C2CCC(=O)NC2=O)C3=O)CCN(c2ccc(C(=O)N[C@H]3C(C)(C)[C@H](Oc4ccc(C#N)c(OC)c4)C3(C)C)cc2)CC1` (stereo partly drawn) [Compound 294], the inhibition at 0.1 µM worked out at 57%.

With `CCOC1(CN2CCC3(CC2)COc2c3ccc3c2C(=O)N(C2CCC(=O)NC2=O)C3=O)CCN(c2ccc(C(=O)N[C@H]3C(C)(C)[C@H](Oc4ccc(C#N)c(OC)c4)C3(C)C)cc2)CC1` (stereo partly drawn) [Compound 295], the inhibition at 0.1 µM worked out at 44%.

Turning to `COc1cc(O[C@H]2C(C)(C)[C@H](NC(=O)c3ccc(N4CCC(CN5CCC6(CCc7cc8c(cc7O6)CN(C6CCC(=O)NC6=O)C8=O)CC5)CC4)cc3)C2(C)C)ccc1C#N` (stereo partly drawn) [Compound 296], the inhibition at 0.1 µM is 63%.

In a further test the target is T2, AR protein (Homo sapiens, UniProt P10275).
T2 construct: degradation activity of the compounds disclosed in the present disclosure on AR protein in VCaP cells; host or cells: VCaP
T2 sequence (P10275 1-920): T1 sequence (P10275 1-920 T878A) with A878T
The test can be described thus: Degradation of AR protein in VCaP cells (Western blot). The format is cell-based. The following applies: compound at 10 nM, 8 hours, read-out: Degradation rate of the AR protein in VCaP cells, 10 nM (%). An outline of the steps:
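Western blot readout: AR band grayscale normalised to GAPDH, used to derive degradation rate. Lysates came from VCaP cells exposed to compound for 8 h, with solvent controls run in parallel.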
On to `CCC1(CN2CCC3(CC2)COc2c3ccc3c2CN(C2CCC(=O)NC2=O)C3=O)CCN(c2ccc(C(=O)N[C@H]3C(C)(C)[C@H](Oc4ccc(C#N)c(OC)c4)C3(C)C)cc2)CC1` (stereo partly drawn) [Compound 294], for which the inhibition at 0.01 µM was determined as 13%.

On to `CCOC1(CN2CCC3(CC2)COc2c3ccc3c2C(=O)N(C2CCC(=O)NC2=O)C3=O)CCN(c2ccc(C(=O)N[C@H]3C(C)(C)[C@H](Oc4ccc(C#N)c(OC)c4)C3(C)C)cc2)CC1` (stereo partly drawn) [Compound 295], for which the inhibition at 0.01 µM is -4%.

For the compound `COc1cc(O[C@H]2C(C)(C)[C@H](NC(=O)c3ccc(N4CCC(CN5CCC6(CCc7cc8c(cc7O6)CN(C6CCC(=O)NC6=O)C8=O)CC5)CC4)cc3)C2(C)C)ccc1C#N` (stereo partly drawn) [Compound 296], the inhibition at 0.01 µM turned out to be 0%.

Staying with this test, now noted: compound at 100 nM, 8 hours, read-out: Degradation rate of the AR protein in VCaP cells, 100 nM (%).
For the compound `CCC1(CN2CCC3(CC2)COc2c3ccc3c2CN(C2CCC(=O)NC2=O)C3=O)CCN(c2ccc(C(=O)N[C@H]3C(C)(C)[C@H](Oc4ccc(C#N)c(OC)c4)C3(C)C)cc2)CC1` (stereo partly drawn) [Compound 294], the inhibition at 0.1 µM amounted to 62%.

On to `CCOC1(CN2CCC3(CC2)COc2c3ccc3c2C(=O)N(C2CCC(=O)NC2=O)C3=O)CCN(c2ccc(C(=O)N[C@H]3C(C)(C)[C@H](Oc4ccc(C#N)c(OC)c4)C3(C)C)cc2)CC1` (stereo partly drawn) [Compound 295], for which the inhibition at 0.1 µM was determined as 37%.

As for `COc1cc(O[C@H]2C(C)(C)[C@H](NC(=O)c3ccc(N4CCC(CN5CCC6(CCc7cc8c(cc7O6)CN(C6CCC(=O)NC6=O)C8=O)CC5)CC4)cc3)C2(C)C)ccc1C#N` (stereo partly drawn) [Compound 296], the inhibition at 0.1 µM came out at 59%.

A further test has as its system LNCaP FGC cells. The test can be described thus: Inhibition of proliferation of LNCaP cells (WST-8). The format is cell-based. The following applies: Homo sapiens, LNCaP, 96 h, LNCaP FGC cells, 96 hours, WST-8 absorbance at 450 nm; read-out: IC50 for inhibiting the proliferation of LNCaP cells. The protocol:
The cells were cultured in a cell culture incubator with 5% CO2 at 37° C. overnight. […] On the sixth day, 96 well plates were taken out, and 20 μL of WST-8 (Beytime, C0040) reagent was added to each well.
A general note: Tetrazolium dyes change colour on reduction, which living cells bring about.
On to `CCC1(CN2CCC3(CC2)COc2c3ccc3c2CN(C2CCC(=O)NC2=O)C3=O)CCN(c2ccc(C(=O)N[C@H]3C(C)(C)[C@H](Oc4ccc(C#N)c(OC)c4)C3(C)C)cc2)CC1` (stereo partly drawn) [Compound 294], for which the IC50 was determined as 77 nM.

Consider `CCOC1(CN2CCC3(CC2)COc2c3ccc3c2C(=O)N(C2CCC(=O)NC2=O)C3=O)CCN(c2ccc(C(=O)N[C@H]3C(C)(C)[C@H](Oc4ccc(C#N)c(OC)c4)C3(C)C)cc2)CC1` (stereo partly drawn) [Compound 295], for which the IC50 came out at 370 nM.

With `COc1cc(O[C@H]2C(C)(C)[C@H](NC(=O)c3ccc(N4CCC(CN5CCC6(CCc7cc8c(cc7O6)CN(C6CCC(=O)NC6=O)C8=O)CC5)CC4)cc3)C2(C)C)ccc1C#N` (stereo partly drawn) [Compound 296], the IC50 came to 6600 nM.

For the next test, the system named is VCaP cells. The test can be described thus: Inhibition of proliferation of VCaP cells (WST-8). The following applies: Homo sapiens; VCaP cells, 168 hours, WST-8 absorbance at 450 nm; read-out: IC50 for inhibiting the proliferation of VCaP cells. The format is cell-based. An outline of the steps: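 Proliferation was read by WST-8 on day nine. Cells were VCaP FGC, seeded at 15000 cells per well in 10% FBS DMEM and kept at 37° C with 5% CO2.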
Regarding `CCC1(CN2CCC3(CC2)COc2c3ccc3c2CN(C2CCC(=O)NC2=O)C3=O)CCN(c2ccc(C(=O)N[C@H]3C(C)(C)[C@H](Oc4ccc(C#N)c(OC)c4)C3(C)C)cc2)CC1` (stereo partly drawn) [Compound 294], the IC50 was found to be 2 nM.

On to `CCOC1(CN2CCC3(CC2)COc2c3ccc3c2C(=O)N(C2CCC(=O)NC2=O)C3=O)CCN(c2ccc(C(=O)N[C@H]3C(C)(C)[C@H](Oc4ccc(C#N)c(OC)c4)C3(C)C)cc2)CC1` (stereo partly drawn) [Compound 295], for which the IC50 turned out to be 20 nM.

In the case of `COc1cc(O[C@H]2C(C)(C)[C@H](NC(=O)c3ccc(N4CCC(CN5CCC6(CCc7cc8c(cc7O6)CN(C6CCC(=O)NC6=O)C8=O)CC5)CC4)cc3)C2(C)C)ccc1C#N` (stereo partly drawn) [Compound 296], the IC50 turned out to be 1 nM.
